These results are taken from patent publication US9708336B2, “Metallo-beta-lactamase inhibitors” (priority 2014, dated 2017).

One experiment addresses NDM-1 (Klebsiella pneumoniae, UniProt C7C422). As to the kind of experiment: biochemical. The class given is biochemical. The following applies: NDM-1 enzyme, CCF2-FA fluorescence assay; read-out: NDM-1 IC50.
A further experiment addresses IMP-1 (Serratia marcescens, UniProt P52699). As to the kind of experiment: biochemical. The class given is biochemical. The following applies: IMP-1 enzyme, CCF2-FA fluorescence assay; read-out: IMP-1 IC50.
In the next experiment the target is VIM-1 (Pseudomonas aeruginosa (strain ATCC 15692 / DSM 22644 / CIP 104116 / JCM 14847 / LMG 12228 / 1C / PRS 101 / PAO1), UniProt A0A0F7KYQ8). The experiment in a line: Enzyme activity: determination of IC50, fluorescence assay with CCF2-FA substrate (VIM-1). Type of experiment: biochemical. The following applies: CCF2-FA fluorescence assay.
In experiment [1] the test system is Escherichia coli expressing NDM-1 (CLB30016). The experiment in a line: Antibiotic potentiation activity: synergistic concentration (MITC95) with imipenem, OD600 growth. The class given is cell-based. The following applies: Escherichia coli expressing NDM-1 (CLB30016), 95% growth inhibition. The procedure, abridged:
(§1)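 Each strain, suspended in saline from overnight colonies and diluted 1:100 into 1.1× CAMHB, is dosed with imipenem at 4 μg/ml (or 1 μg/ml) plus compound, incubated 22–24 h at 35 °C and read by absorbance.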

Experiment [2] has as its system Klebsiella pneumoniae expressing VIM-1 (IHMA599644). Described as above. The following applies: Klebsiella pneumoniae expressing VIM-1 (IHMA599644), 95% growth inhibition. Type of experiment: cell-based. Put shortly: as §1
Experiment [3] concerns Serratia marcescens expressing IMP-1 (CL5741). The description is as above. Type of experiment: cell-based. The following applies: Serratia marcescens expressing IMP-1 (CL5741), 95% growth inhibition. Put shortly: as §1
Where [4] appears, read: VIM-1 enzyme, read-out: VIM-1 IC50.

Read-outs that look alike come from different tables or passages of the source.

Chain of NDM-1 (C7C422 whole entry, looked up, species assumed): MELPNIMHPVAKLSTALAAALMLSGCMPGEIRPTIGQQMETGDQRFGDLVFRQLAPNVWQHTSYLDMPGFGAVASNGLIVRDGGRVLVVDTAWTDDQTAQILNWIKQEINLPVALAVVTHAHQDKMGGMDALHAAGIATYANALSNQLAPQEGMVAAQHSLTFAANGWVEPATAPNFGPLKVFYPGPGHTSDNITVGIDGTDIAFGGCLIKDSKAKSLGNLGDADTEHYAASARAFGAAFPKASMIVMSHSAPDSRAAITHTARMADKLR
Chain of IMP-1 (P52699 whole entry, looked up): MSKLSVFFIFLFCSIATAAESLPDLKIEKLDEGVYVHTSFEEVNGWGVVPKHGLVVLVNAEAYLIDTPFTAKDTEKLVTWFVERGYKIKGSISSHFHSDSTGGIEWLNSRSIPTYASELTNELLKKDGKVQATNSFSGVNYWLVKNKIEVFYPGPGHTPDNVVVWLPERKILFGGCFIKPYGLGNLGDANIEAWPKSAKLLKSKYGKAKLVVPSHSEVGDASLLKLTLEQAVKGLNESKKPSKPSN

In the case of `CNCC(C)NCc1ccc(-c2cccc(S(N)(=O)=O)c2-c2nn[nH]n2)cc1` (stereo not drawn) [Example 359, 4′-({[1-methyl-2-(methylamino)ethyl]amino}methyl)-2-(2H-tetrazol-5-yl)biphenyl-3-sulfonamide], the values for the 50% inhibitory concentration (IC50) at NDM-1, at IMP-1 and at VIM-1 (setting [4]) were 13 nM, 104 nM and 1870 nM, respectively. Moreover, the “Escherichia coli MITC95” value in experiment [1] was found to be 4.688 µM. Further, the “Klebsiella pneumoniae MITC95” value in experiment [2] is >200 µM. For the same compound, in experiment [3], the “Serratia marcescens MITC95” value stood at 3.125 µM.

`Cc1nc(CNCc2ccc(-c3cccc(S(N)(=O)=O)c3-c3nnn[nH]3)cc2)no1` [Example 360, 4′-({[(5-methyl-1,2,4-oxadiazol-3-yl)methyl]amino}methyl)-2-(1H-tetrazol-5-yl)biphenyl-3-sulfonamide]: the concentration for half-maximal inhibition (IC50) (usually the point on the concentration scale where inhibition reaches its midpoint) at NDM-1 was found to be 1.52 nM; on IMP-1, 37.6 nM; on VIM-1 (setting [4]) it was 232 nM. The “Escherichia coli MITC95” value in experiment [1] stood at 2.344 µM. Also, the “Klebsiella pneumoniae MITC95” value in experiment [2] is >200 µM. The “Serratia marcescens MITC95” value in experiment [3] turned out to be 2.344 µM.

As to `CN(CCC(=O)O)Cc1ccc(-c2cccc(S(N)(=O)=O)c2-c2nnn[nH]2)cc1` [Example 361, N-methyl-N-{[3′-sulfamoyl-2′-(1H-tetrazol-5-yl)biphenyl-4-yl]methyl}-beta-alanine], the values for the half-inhibitory concentration (IC50) at NDM-1, at IMP-1 and at VIM-1 (setting [4]) were 12.9 nM, 139 nM and 271 nM, respectively. Also, the “Escherichia coli MITC95” value in experiment [1] turned out to be 2.344 µM. Besides, the “Klebsiella pneumoniae MITC95” value in experiment [2] came out at 25 µM. In addition, the “Serratia marcescens MITC95” value in experiment [3] worked out at 3.125 µM.

As for `NC(=O)C1CN(Cc2ccc(-c3cccc(S(N)(=O)=O)c3-c3nnn[nH]3)cc2)C1` [Example 362, 1-{[3′-sulfamoyl-2′-(1H-tetrazol-5-yl)biphenyl-4-yl]methyl}azetidine-3-carboxamide], the 50% inhibitory concentration (IC50) on NDM-1 is 11.3 nM; on IMP-1, 116 nM; against VIM-1 (VIM-1 IC50, VIM-1 enzyme), 494 nM. Also, the “Escherichia coli MITC95” value in experiment [1] came out at 0.7813 µM. The “Klebsiella pneumoniae MITC95” value in experiment [2] was 75 µM. Besides, the “Serratia marcescens MITC95” value in experiment [3] was 3.125 µM.

As to `Cn1cncc1C[C@@H](NCc1ccc(-c2cccc(S(N)(=O)=O)c2-c2nnn[nH]2)cc1)C(=O)O` [Example 363, 3-methyl-N-{[3′-sulfamoyl-2′-(1H-tetrazol-5-yl)biphenyl-4-yl]methyl}-D-histidine], the IC50 came out at 21.4 nM at NDM-1, 233 nM on IMP-1 and 495 nM on VIM-1 (setting [4]). The “Escherichia coli MITC95” value in experiment [1] was determined as 3.125 µM. In addition, the “Klebsiella pneumoniae MITC95” value in experiment [2] was found to be 100 µM. The “Serratia marcescens MITC95” value in experiment [3] was determined as 6.25 µM.

For the compound `CN(CC(=O)O)Cc1ccc(-c2cccc(S(N)(=O)=O)c2-c2nnn[nH]2)cc1` [Example 364, N-methyl-N-{[3′-sulfamoyl-2′-(1H-tetrazol-5-yl)biphenyl-4-yl]methyl}glycine], the values for the IC50 on NDM-1, at IMP-1 and at VIM-1 (setting [4]) were 9.17 nM, 100 nM and 212 nM, respectively. Moreover, the “Escherichia coli MITC95” value in experiment [1] came out at 1.563 µM. Moreover, the “Klebsiella pneumoniae MITC95” value in experiment [2] was determined as 25 µM. In addition, the “Serratia marcescens MITC95” value in experiment [3] worked out at 3.125 µM.

Take `NS(=O)(=O)c1cccc(-c2ccc(CN[C@H]3COC[C@@H]3O)cc2)c1-c1nnn[nH]1` [Example 365, 4′-({[(3S,4R)-4-hydroxytetrahydrofuran-3-yl]amino}methyl)-2-(1H-tetrazol-5-yl)biphenyl-3-sulfonamide]: the values for the IC50 at NDM-1, at IMP-1 and at VIM-1 (setting [4]) were 5.37 nM, 52.1 nM and 390 nM, respectively. Further, in experiment [1], the “Escherichia coli MITC95” value is 1.563 µM. Also, the “Klebsiella pneumoniae MITC95” value in experiment [2] turned out to be 75 µM. For the same compound, the “Serratia marcescens MITC95” value in experiment [3] was 2.344 µM.

For `CN(C)CCCN(C)Cc1ccc(-c2cccc(S(N)(=O)=O)c2-c2nnn[nH]2)cc1` [Example 368, 4′-({[3-(dimethylamino)propyl](methyl)amino}methyl)-2-(1H-tetrazol-5-yl)biphenyl-3-sulfonamide], the concentration for half-maximal inhibition (IC50) on NDM-1 came to 23.4 nM; at IMP-1 it was 417 nM; on VIM-1 (setting [4]), 1680 nM. Moreover, the “Escherichia coli MITC95” value in experiment [1] was 1.563 µM. In addition, the “Klebsiella pneumoniae MITC95” value in experiment [2] was >200 µM. In experiment [3], the “Serratia marcescens MITC95” value came out at 9.375 µM.

For the compound `NS(=O)(=O)c1cccc(-c2ccc(CN[C@@H]3CC[C@H](O)C3)cc2)c1-c1nnn[nH]1` [Example 369, 4′-({[(1R,3S)-3-hydroxycyclopentyl]amino}methyl)-2-(1H-tetrazol-5-yl)biphenyl-3-sulfonamide], the IC50 at NDM-1 turned out to be 25.2 nM; at IMP-1, 728 nM; at VIM-1 (setting [4]), 667 nM. Moreover, the “Escherichia coli MITC95” value in experiment [1] was determined as 3.125 µM. Moreover, the “Klebsiella pneumoniae MITC95” value in experiment [2] was 200 µM. Besides, the “Serratia marcescens MITC95” value in experiment [3] came to 12.5 µM.

On to `CNC(=O)CNCc1ccc(-c2cccc(S(N)(=O)=O)c2-c2nnn[nH]2)cc1` [Example 371, N-methyl-N~2~-{[3′-sulfamoyl-2′-(1H-tetrazol-5-yl)biphenyl-4-yl]methyl}glycinamide], for which the half-maximal inhibitory concentration (IC50) was found to be 8.5 nM at NDM-1, 78.3 nM on IMP-1 and 370 nM at VIM-1 (setting [4]). In addition, the “Escherichia coli MITC95” value in experiment [1] turned out to be 0.7813 µM. In experiment [2], the “Klebsiella pneumoniae MITC95” value was 100 µM. Besides, the “Serratia marcescens MITC95” value in experiment [3] stood at 2.344 µM.

On to `NS(=O)(=O)c1cccc(-c2ccc(CN3CC(F)(F)C3)cc2)c1-c1nnn[nH]1` [Example 372, 4′-[(3,3-difluoroazetidin-1-yl)methyl]-2-(1H-tetrazol-5-yl)biphenyl-3-sulfonamide], for which the figures for the IC50 on NDM-1, at IMP-1 and on VIM-1 (setting [4]) were 4.91 nM, 15.7 nM and 470 nM, respectively. Further, the “Escherichia coli MITC95” value in experiment [1] amounted to 7.813 µM. Further, in experiment [2], the “Klebsiella pneumoniae MITC95” value is >200 µM. Also, the “Serratia marcescens MITC95” value in experiment [3] amounted to 1.563 µM.

Take `NS(=O)(=O)c1cccc(-c2ccc(CNC[C@@]3(O)CCOC3)cc2)c1-c1nnn[nH]1` [Example 373, 4′-[({[(3S)-3-hydroxytetrahydrofuran-3-yl]methyl}amino)methyl]-2-(1H-tetrazol-5-yl)biphenyl-3-sulfonamide]: the IC50 was found to be 11.3 nM on NDM-1, 247 nM at IMP-1 and 241 nM on VIM-1 (setting [4]). Also, the “Escherichia coli MITC95” value in experiment [1] worked out at 1.563 µM. In experiment [2], the “Klebsiella pneumoniae MITC95” value was found to be 50 µM. For the same compound, the “Serratia marcescens MITC95” value in experiment [3] is 3.125 µM.

In the case of `NS(=O)(=O)c1cccc(-c2ccc(CNC(CO)CO)cc2)c1-c1nnn[nH]1` [Example 374, 4′-({[2-hydroxy-1-(hydroxymethyl)ethyl]amino}methyl)-2-(1H-tetrazol-5-yl)biphenyl-3-sulfonamide], the IC50 on NDM-1 turned out to be 16 nM; at IMP-1, 264 nM; at VIM-1 (setting [4]), 277 nM. For the same compound, in experiment [1], the “Escherichia coli MITC95” value was determined as 0.7813 µM. In addition, the “Klebsiella pneumoniae MITC95” value in experiment [2] was found to be 37.5 µM. Also, the “Serratia marcescens MITC95” value in experiment [3] is 3.125 µM.

As for `NS(=O)(=O)c1cccc(-c2ccc(CNC3CCC(=O)NC3)cc2)c1-c1nnn[nH]1` (stereo not drawn) [Example 375, 4′-{[(6-oxopiperidin-3-yl)amino]methyl}-2-(1H-tetrazol-5-yl)biphenyl-3-sulfonamide], the figures for the IC50 on NDM-1, at IMP-1 and on VIM-1 (setting [4]) were 6.13 nM, 97.6 nM and 533 nM, respectively. The “Escherichia coli MITC95” value in experiment [1] worked out at 1.563 µM. The “Klebsiella pneumoniae MITC95” value in experiment [2] was >200 µM. The “Serratia marcescens MITC95” value in experiment [3] turned out to be 3.125 µM.
